According to PubChem BioAssay AID2060887 (Molecular Pharmacology Branch, DTP, NCI, 2025):

Tested on: 782815-120-R-J1-PDC complex spheroid viability
Experiment: Anticancer human tumor 782815-120-R-J1-PDC patient-derived colon adenocarcinoma cell line growth inhibition [RAS]
Details: for IC50: curve of first compound; for viability, T/C: stronger effect = lower value
Procedure, shortened: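 Multi-cell-type spheroids: tumor cells plus HUVEC endothelial cells and mesenchymal stem cells. RAS-pathway inhibitors were combined with targeted agents, each dosed in half-log steps down from clinical Cmax, or from 10 microM when Cmax was unknown.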

[1] = second compound 0.000949 µM, first compound 0.000949 µM
[2] = second compound 0.000949 µM, first compound 0.003 µM
[3] = second compound 0.000949 µM, first compound 0.00949 µM
[4] = second compound 0.000949 µM, first compound 0.03 µM
[5] = second compound 0.000949 µM, first compound 0.0949 µM
[6] = second compound 0.000949 µM, first compound 0.3 µM
[7] = second compound 0.003 µM, first compound 0.000949 µM
[8] = second compound 0.003 µM, first compound 0.003 µM
[9] = second compound 0.003 µM, first compound 0.00949 µM
[10] = second compound 0.003 µM, first compound 0.03 µM
[11] = second compound 0.003 µM, first compound 0.0949 µM
[12] = second compound 0.003 µM, first compound 0.3 µM
[13] = second compound 0.00949 µM, first compound 0.000949 µM
[14] = second compound 0.00949 µM, first compound 0.003 µM
[15] = second compound 0.00949 µM, first compound 0.00949 µM
[16] = second compound 0.00949 µM, first compound 0.03 µM
[17] = second compound 0.00949 µM, first compound 0.0949 µM
[18] = second compound 0.00949 µM, first compound 0.3 µM
[19] = second compound 0.03 µM, first compound 0.000949 µM
[20] = second compound 0.03 µM, first compound 0.003 µM
[21] = second compound 0.03 µM, first compound 0.00949 µM
[22] = second compound 0.03 µM, first compound 0.03 µM
[23] = second compound 0.03 µM, first compound 0.0949 µM
[24] = second compound 0.03 µM, first compound 0.3 µM
[25] = second compound 0.0949 µM, first compound 0.000949 µM
[26] = second compound 0.0949 µM, first compound 0.003 µM
[27] = second compound 0.0949 µM, first compound 0.00949 µM
[28] = second compound 0.0949 µM, first compound 0.03 µM
[29] = second compound 0.0949 µM, first compound 0.0949 µM
[30] = second compound 0.0949 µM, first compound 0.3 µM
[31] = second compound 0.3 µM, first compound 0.000949 µM
[32] = second compound 0.3 µM, first compound 0.003 µM
[33] = second compound 0.3 µM, first compound 0.00949 µM
[34] = second compound 0.3 µM, first compound 0.03 µM
[35] = second compound 0.3 µM, first compound 0.0949 µM
[36] = second compound 0.3 µM, first compound 0.3 µM
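Further: spheroids exposed to compounds for 7 days before reading.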
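Wherever viability, T/C is given: 100% = DMSO vehicle control viability.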

## C=CC(=O)N1CCN(c2nc(OCC3CCCN3C)nc3c(F)c(-c4nc(N)cc(C)c4C(F)(F)F)c(Cl)cc23)C(C)C1 (stereo unspecified) + CCn1c(-c2cccnc2C(C)OC)c2c3cc(ccc31)N1CCOC(CC(NC(=O)C(C(C)C)N(C)C(=O)C3(F)CCN(C(=O)C#CC(C)(C)N(C)C)CC3)C(=O)N3CCCC(N3)C(=O)OCC(C)(C)C2)C1
Second compound 0.000949 µM
  IC50: > 1000 nM
Second compound 0.003 µM
  IC50: > 1000 nM
Second compound 0.00949 µM
  IC50: > 1000 nM
Second compound 0.03 µM
  IC50: > 1000 nM
Second compound 0.0949 µM
  IC50: > 1000 nM
Second compound 0.3 µM
  IC50: > 1000 nM
Second compound 0.000949 µM, first compound 0.00316 µM
  viability, T/C: 95.1%
Second compound 0.000949 µM, first compound 0.01 µM
  viability, T/C: 96%
Second compound 0.000949 µM, first compound 0.0316 µM
  viability, T/C: 101%
Second compound 0.000949 µM, first compound 0.1 µM
  viability, T/C: 83.2%
Second compound 0.000949 µM, first compound 0.316 µM
  viability, T/C: 94.4%
Second compound 0.000949 µM, first compound 1 µM
  viability, T/C: 94.5%
Second compound 0.003 µM, first compound 0.00316 µM
  viability, T/C: 91.3%
Second compound 0.003 µM, first compound 0.01 µM
  viability, T/C: 97%
Second compound 0.003 µM, first compound 0.0316 µM
  viability, T/C: 101%
Second compound 0.003 µM, first compound 0.1 µM
  viability, T/C: 94.8%
Second compound 0.003 µM, first compound 0.316 µM
  viability, T/C: 93.3%
Second compound 0.003 µM, first compound 1 µM
  viability, T/C: 94.7%
Second compound 0.00949 µM, first compound 0.00316 µM
  viability, T/C: 87.2%
Second compound 0.00949 µM, first compound 0.01 µM
  viability, T/C: 97.2%
Second compound 0.00949 µM, first compound 0.0316 µM
  viability, T/C: 89.4%
Second compound 0.00949 µM, first compound 0.1 µM
  viability, T/C: 95.6%
Second compound 0.00949 µM, first compound 0.316 µM
  viability, T/C: 92.9%
Second compound 0.00949 µM, first compound 1 µM
  viability, T/C: 99.1%
Second compound 0.03 µM, first compound 0.00316 µM
  viability, T/C: 86.8%
Second compound 0.03 µM, first compound 0.01 µM
  viability, T/C: 95%
Second compound 0.03 µM, first compound 0.0316 µM
  viability, T/C: 87%
Second compound 0.03 µM, first compound 0.1 µM
  viability, T/C: 99.4%
Second compound 0.03 µM, first compound 0.316 µM
  viability, T/C: 94.4%
Second compound 0.03 µM, first compound 1 µM
  viability, T/C: 92.1%
Second compound 0.0949 µM, first compound 0.00316 µM
  viability, T/C: 86.8%
Second compound 0.0949 µM, first compound 0.01 µM
  viability, T/C: 105%
Second compound 0.0949 µM, first compound 0.0316 µM
  viability, T/C: 99%
Second compound 0.0949 µM, first compound 0.1 µM
  viability, T/C: 101%
Second compound 0.0949 µM, first compound 0.316 µM
  viability, T/C: 101%
Second compound 0.0949 µM, first compound 1 µM
  viability, T/C: 96.4%
Second compound 0.3 µM, first compound 0.00316 µM
  viability, T/C: 93.4%
Second compound 0.3 µM, first compound 0.01 µM
  viability, T/C: 84.3%
Second compound 0.3 µM, first compound 0.0316 µM
  viability, T/C: 97.5%
Second compound 0.3 µM, first compound 0.1 µM
  viability, T/C: 91.2%
Second compound 0.3 µM, first compound 0.316 µM
  viability, T/C: 89.3%
Second compound 0.3 µM, first compound 1 µM
  viability, T/C: 87.4%

## CC1(C)CCC(Nc2ncc(C(F)(F)F)c(-c3c[nH]c4c(P(C)(C)=O)c(C#N)ccc34)n2)CN1 (stereo unspecified) + CCn1c(-c2cccnc2C(C)OC)c2c3cc(ccc31)N1CCOC(CC(NC(=O)C(C(C)C)N(C)C(=O)C3(F)CCN(C(=O)C#CC(C)(C)N(C)C)CC3)C(=O)N3CCCC(N3)C(=O)OCC(C)(C)C2)C1
Second compound 0.000949 µM
  IC50: 42.5 nM
Second compound 0.003 µM
  IC50: 43.5 nM
Second compound 0.00949 µM
  IC50: 67.2 nM
Second compound 0.03 µM
  IC50: 56.3 nM
Second compound 0.0949 µM
  IC50: 62.4 nM
Second compound 0.3 µM
  IC50: 30.1 nM
[1]
  viability, T/C: 105%
[2]
  viability, T/C: 93.1%
[3]
  viability, T/C: 68.5%
[4]
  viability, T/C: 51%
[5]
  viability, T/C: 49.8%
[6]
  viability, T/C: 41.2%
[7]
  viability, T/C: 91.5%
[8]
  viability, T/C: 89.2%
[9]
  viability, T/C: 81.8%
[10]
  viability, T/C: 52.1%
[11]
  viability, T/C: 45.8%
[12]
  viability, T/C: 44.3%
[13]
  viability, T/C: 90.5%
[14]
  viability, T/C: 93.7%
[15]
  viability, T/C: 83.2%
[16]
  viability, T/C: 54.1%
[17]
  viability, T/C: 51.6%
[18]
  viability, T/C: 44.6%
[19]
  viability, T/C: 86.1%
[20]
  viability, T/C: 88.8%
[21]
  viability, T/C: 78.4%
[22]
  viability, T/C: 54.9%
[23]
  viability, T/C: 44.1%
[24]
  viability, T/C: 47.6%
[25]
  viability, T/C: 107%
[26]
  viability, T/C: 83.6%
[27]
  viability, T/C: 70.3%
[28]
  viability, T/C: 56.8%
[29]
  viability, T/C: 45.5%
[30]
  viability, T/C: 39.9%
[31]
  viability, T/C: 83.9%
[32]
  viability, T/C: 86.6%
[33]
  viability, T/C: 65%
[34]
  viability, T/C: 52.2%
[35]
  viability, T/C: 39.4%
[36]
  viability, T/C: 36.3%

## CCc1c2c(nc3ccc(O)cc13)-c1cc3c(c(=O)n1C2)COC(=O)[C@]3(O)CC + CCn1c(-c2cccnc2C(C)OC)c2c3cc(ccc31)N1CCOC(CC(NC(=O)C(C(C)C)N(C)C(=O)C3(F)CCN(C(=O)C#CC(C)(C)N(C)C)CC3)C(=O)N3CCCC(N3)C(=O)OCC(C)(C)C2)C1
Second compound 0.000949 µM
  IC50: 3.67 nM
Second compound 0.003 µM
  IC50: 3.95 nM
Second compound 0.00949 µM
  IC50: 3.98 nM
Second compound 0.03 µM
  IC50: 2.91 nM
Second compound 0.0949 µM
  IC50: 3.69 nM
Second compound 0.3 µM
  IC50: 3.26 nM
[1]
  viability, T/C: 84%
[2]
  viability, T/C: 56.1%
[3]
  viability, T/C: 22.1%
[4]
  viability, T/C: 8.78%
[5]
  viability, T/C: 2.94%
[6]
  viability, T/C: 1.62%
[7]
  viability, T/C: 89.9%
[8]
  viability, T/C: 59.1%
[9]
  viability, T/C: 21.3%
[10]
  viability, T/C: 9.28%
[11]
  viability, T/C: 4.83%
[12]
  viability, T/C: 1.63%
[13]
  viability, T/C: 86.5%
[14]
  viability, T/C: 59.2%
[15]
  viability, T/C: 22.6%
[16]
  viability, T/C: 11.7%
[17]
  viability, T/C: 3.57%
[18]
  viability, T/C: 1.64%
[19]
  viability, T/C: 91.9%
[20]
  viability, T/C: 49.3%
[21]
  viability, T/C: 19%
[22]
  viability, T/C: 10.1%
[23]
  viability, T/C: 4.83%
[24]
  viability, T/C: 1.53%
[25]
  viability, T/C: 82.5%
[26]
  viability, T/C: 57%
[27]
  viability, T/C: 18.8%
[28]
  viability, T/C: 8.68%
[29]
  viability, T/C: 5.21%
[30]
  viability, T/C: 1.73%
[31]
  viability, T/C: 86.1%
[32]
  viability, T/C: 53%
[33]
  viability, T/C: 15.4%
[34]
  viability, T/C: 8.17%
[35]
  viability, T/C: 2.87%
[36]
  viability, T/C: 1.16%
